# Assays:
# Type in all cases: in vivo
# H. armigera 3rd instar = assay: Example 5B ratio study, treated leaf bioassay, mortality and Colby synergy (protocol B)
# Procedure: (§1) Ratios of bifenthrin to chlorantraniliprole were evaluated on various crops and target pests as indicated in the protocol disclosed Table 5A below where “Lab.” Refers to laboratory, “No. of Treat.” refers to number of treatments, and Total refers to the total number of insects tested. In each evaluation, foliar application was done, the insecticide action was contact/ingestion and 32 insects were evaluated in each treatment.
# (§2) The treatment schedule shown in Table 5B was used where “dose” refers to application rate, “ratio” refers to the ratio of bifenthrin to chlorantraniliprole on an a.i. basis.
# (§3) Treatments were applied inside a sprayer chamber simulating a volume of 200 l/ha over soybean plants. After a drying period, treated leaves were removed from the plants and placed inside 16 well trays containing agar solution (2%) covered with filter paper. Two 16 well trays were prepared for each treatment (32 larvae/treatment). One 3rd instar larva from laboratory strains was placed in each well over the treated leaf. Trays were kept under controlled conditions of 25° C., photoperiod of 14:10 hours, and 60% RH. Morality was evaluated after 96 hours. Mortality is defined as dead and moribund larvae.
# (§4) Synergy or antagonism was determined using the Colby Equation where: E=X+(100−X)(Y)/100)=X+Y−X*Y/100. X is the observed result for compound A at p grams a.e./ha. Y is the observed result for compound B at q grams a.e./ha. E is the expected result for a mixture of A and B at (p+q) g a.i./ha if there is no synergy or antagonism. If the observed value for the combination of A and B is greater than E (Obs>E) then synergy is indicated. If the observed value for the combination of A and B is less than E (Obs<E) then antagonism is indicated.
# Morality on H. armigera was evaluated according to protocol B (refer to Table 5B) using treatment numbers 5.1 to 5.13 (refer to Table 5B).
# [1] = test system: S. frugiperda laboratory strain (susceptible); assay: Example 5C ratio study, mortality and Colby synergy, laboratory strain (protocol G); conditions: Spodoptera frugiperda, 96 hours
# Procedure: as §1, §2, §3, §4
# (§5) Morality on S. frugiperda was evaluated according to protocols G and H (refer to Table 5B), but where two S. frugiperda strains were tested: a laboratory strain (susceptible) and a field strain in F3 generation sampled in the 2018/2019 season in Sinop-MT region using treatment numbers 5.1 to 5.10 (refer to Table 5B). The results are reported in Tables 5E (Laboratory Strain) and 5F (Filed Strain).
# [2] = test system: S. frugiperda field strain; assay: Example 5C ratio study, mortality and Colby synergy, field strain (protocol H)
# Procedure: as §1, §2, §3, §4, §5
# C. includens 3rd instar = assay: Example 5A ratio study, treated leaf bioassay, mortality and Colby synergy (protocol A); conditions: at 7.5 g a.i./ha
# Procedure: as §1, §2
# Treatments were applied inside a sprayer chamber simulating a volume of 200 l/ha over soybean plants. After a drying period, treated leaves were removed from the plants and placed inside 16 well trays containing agar solution (2%) covered with filter paper. […] Morality was evaluated after 96 hours. […]
# Synergy or antagonism was determined using the Colby Equation where: E=X+(100−X)(Y)/100)=X+Y−X*Y/100. […]
# Morality on C. includens was evaluated according to protocol A (refer to Table 5B) using treatment numbers 5.1, 5.3, 5.5 to 5.8 and 5.10 to 5.13 (refer to Table 5B). The results are reported in Table 5C below where mortality is the mean mortality, the E value was calculated by the Colby equation, and the synergy value is determined by dividing the mean mortality (%) by the expected value (E).
# [3] = test system: E. heros 3rd instar nymphs; assay: Example 5D ratio study on soybean plants, mortality and Colby synergy, nymphs (protocol C); conditions: statement for E. heros (nymphs and adults, protocols C and D)
# Procedure: as §1, §2, §4
# (§6) Morality on E. heros was evaluated according to protocols C and D (refer to Table 5B). […] Mortality was evaluated after 72 hours. […]
# [4] = test system: D. melachantus 3rd instar nymphs; assay: Example 5E ratio study, mortality and Colby synergy, nymphs (protocol E); conditions: statement for D. melacanthus (nymphs and adults, protocols E and F)
# Procedure: as §1, §2, §4, §6
# Morality on D. melachantus was evaluated according to protocols E and F (refer to Table 5B). […]
compound,measurement,setting,value
"Cc1c(COC(=O)[C@@H]2[C@H](/C=C(\Cl)C(F)(F)F)C2(C)C)cccc1-c1ccccc1 (racemic) [Bifenthrin, 2-methylbiphenyl-3-ylmethyl (Z)-(1RS)-cis-3-(2-chloro-3,3,3-trifluoroprop-1-enyl)-2,2-dimethyl cyclopropanecarboxylate]",mortality at 10 g/ha,"H. armigera 3rd instar; Helicoverpa armigera, Bifenthrin 10 g a.i./ha, 96 hours",0%
same,mortality at 15 g/ha,"H. armigera 3rd instar; Helicoverpa armigera, Bifenthrin 15 g a.i./ha, 96 hours",0%
same,mortality at 30 g/ha,"H. armigera 3rd instar; Helicoverpa armigera, Bifenthrin 30 g a.i./ha, 96 hours",0%
same,mortality at 45 g/ha,"H. armigera 3rd instar; Helicoverpa armigera, Bifenthrin 45 g a.i./ha, 96 hours",0%
same,mortality at 60 g/ha,"H. armigera 3rd instar; Helicoverpa armigera, Bifenthrin 60 g a.i./ha, 96 hours",9.4%
same,control of H. armigera,"H. armigera 3rd instar; even at a higher dose of 60 g a.i./ha, H. armigera resistance to pyrethroids",lower control
same,mortality at 10 g/ha,[1]; Bifenthrin 10 g a.i./ha,34.4%
same,mortality at 15 g/ha,[1]; Bifenthrin 15 g a.i./ha,53.1%
same,mortality at 30 g/ha,[1]; Bifenthrin 30 g a.i./ha,78.1%
same,mortality at 45 g/ha,[1]; Bifenthrin 45 g a.i./ha,96.9%
same,mortality at 60 g/ha,[1]; Bifenthrin 60 g a.i./ha,93.8%
same,mortality at 10 g/ha,"[2]; Spodoptera frugiperda, Bifenthrin 10 g a.i./ha, 96 hours",3.1%
same,mortality at 15 g/ha,"[2]; Spodoptera frugiperda, Bifenthrin 15 g a.i./ha, 96 hours",3.1%
same,mortality at 30 g/ha,"[2]; Spodoptera frugiperda, Bifenthrin 30 g a.i./ha, 96 hours",15.6%
same,mortality at 45 g/ha,"[2]; Spodoptera frugiperda, Bifenthrin 45 g a.i./ha, 96 hours",43.8%
same,mortality at 60 g/ha,"[2]; Spodoptera frugiperda, Bifenthrin 60 g a.i./ha, 96 hours",43.8%
same,control of S. frugiperda,"[2]; lower doses of bifenthrin, especially on the field strain",lower control
"CNC(=O)c1cc(Cl)cc(C)c1NC(=O)c1cc(Br)nn1-c1ncccc1Cl [Chlorantraniliprole, 5-bromo-N-[4-chloro-2-methyl-6-(methylcarbamoyl)phenyl]-2-(3-chloropyridin-2-yl)pyrazole-3-carboxamide]",control of C. includens,C. includens 3rd instar,most effective
same,mortality at 5 g/ha,"H. armigera 3rd instar; Helicoverpa armigera, Chlorantraniliprole 5 g a.i./ha, 96 hours",84.4%
same,mortality at 7.5 g/ha,"H. armigera 3rd instar; Helicoverpa armigera, Chlorantraniliprole 7.5 g a.i./ha, 96 hours",100%
same,H. armigera control,H. armigera 3rd instar; at 7.5 g a.i./ha,most effective
same,mortality at 5 g/ha,[1]; Chlorantraniliprole 5 g a.i./ha,96.9%
same,mortality at 7.5 g/ha,[1]; Chlorantraniliprole 7.5 g a.i./ha,100%
same,mortality at 5 g/ha,"[2]; Spodoptera frugiperda, Chlorantraniliprole 5 g a.i./ha, 96 hours",40.6%
same,mortality at 7.5 g/ha,"[2]; Spodoptera frugiperda, Chlorantraniliprole 7.5 g a.i./ha, 96 hours",59.4%
same,control of E. heros,[3],did not control
same,control of D. melacanthus,[4],did not control
